From patent US9708310B2, “Phenanthroindolizidine and phenanthroquinolizidine alkaloid having a hydroxyl group on the phenanthrene ring thereof, preparation method and use thereof” (CHINA MEDICAL UNIVERSITY, priority 2015, dated 2017)
Converted amounts (≈) assume the structure as drawn.

Experiments:
[1] = cited from earlier work
[2] = system: rats; details: high doses; cited from earlier work
[3] = early clinical trial; cited from earlier work
[4] = predicted by PreADMET; cited from earlier work
[5] = system: prostate carcinoma (DU145) cells; assay: Cell viability (MTT) assay, DU145; assay type: cell-based, human
Procedure: (§1) 8. Typical Procedure for Cell Viability Assay
(§2) The breast carcinoma (MCF-7), lung carcinoma (H1299), and prostate carcinoma (DU145) cells were first plated at a density of 5×10^3 cells per well in 96-well plates for overnight and then treated with different concentrations of these compounds. After 48 h of treatment, 100 µL of MTT solution was added to each well and the cells were incubated for 1 h at 37° C. Then, the MTT solution was completely removed and […] of DMSO was added to solubilize the MTT formazan crystals. Finally, the absorbance was measured using a MQX200R microplate reader (BioTek, VT, USA) at a wavelength of 550 nm.

[6] = system: lung carcinoma (H1299) cells; assay: Cell viability (MTT) assay, H1299; assay type: cell-based, human
Procedure: as §1, §2

[7] = system: breast carcinoma (MCF-7) cells; assay: Cell viability (MTT) assay, MCF-7; assay type: cell-based, human
Procedure: as §1, §2

[8] = system: MCF-7, H1299, DU145 cancer cell lines; assay type: cell-based, human
Procedure: as §2
The cytotoxic activities of 18 compounds 4a-i and 5a-i were evaluated against three human cancer cell lines, breast carcinoma (MCF-7), lung carcinoma (H1299), and prostate carcinoma (DU145), using tylophorine (4i) and 7-methoxycryptopleurine (5i) for comparison. […] In the phenanthroindolizidine series, the IC50 ratio of compounds 4a-h to tylophorine (4i) followed the order: 4a˜4h˜4e>4f>>4b˜[…]>4d>4g; however, in the phenanthroquinolizidine series, the IC50 ratio of compounds 5a-h to 7-methoxycryptopleurine (5i) followed the order: 5c˜5a˜5h˜5b>>5f˜5d>5e>5g. […] Based on the SAR results, a more polar phenanthroquinolizidine, 7-hydroxycryptopleurine (20), was designed and synthesized to decrease the CNS toxicity and increase the water solubility. […]

[9] = Solubility in the dosing solvent system; details: 2.5% DMSO, 2.5% EtOH, 5% Cremophor EL, and 90% normal saline
[10] = system: cyclin D1, CDK4, cyclin E, CDK2, cyclin B1, and CDK1; assay: Western blot of H1299 cell cycle associated protein; assay type: cell-based, human; details: H1299 cells, 7, 14, and 21 nM, 12, 24, and 48 h
Procedure: 9. The Effect of Compound 20 on H1299 Cell Cycle Associated Protein
9.1 Western Blot Analysis
H1299 cells were first seeded at a density of 3×10^5 cells per well in six-well plates overnight and then treated with compound 20 at three different concentrations (7, 14, and 21 nM) for 12, 24, and 48 h. The cells were washed with PBS buffer and lysed in ice-cold RIPA buffer for 30 min. The supernatant was collected and centrifuged at 15,000 rpm at 4° C. for 30 min. The protein concentration was measured with a Bio-Rad assay using a MQX200R microplate reader (BioTek, VT, USA). The cell lysates were separated by 10% SDS-PAGE and electrophoretically transferred onto polyvinylidene difluoride (PVDF) membranes (Millipore, Bedford, Mass.). After several washes, the membranes were blocked with 5% skim milk in TBST (tris-buffered saline containing 0.1% Tween-20) at room temperature for 1 h and incubated with different primary antibodies against cyclin D1, CDK4, cyclin E, CDK2, cyclin B1, and CDK1 (1:2000 dilution) at 4° C. for overnight. […] After washing three times in TBST, the bound antibody was visualized using ECL Western Blotting Reagent (PerkinElmer, Boston), and chemiluminescence was detected using a Fuji Medical X-ray film (Tokyo, Japan).
All the data were expressed as means±SEM for three replicate experiments. […]

[11] = physchem; details: aqueous with cosolvent or surfactant or cyclodextrin
[12] = system: normal human lung fibroblast cell line, MRC-5; assay: Cytotoxicity against normal lung fibroblasts MRC-5; assay type: cell-based; details: MRC5
[13] = system: female athymic nude mice; assay: Rotarod test for motor coordination (neurotoxicity); assay type: in vivo; details: i.p., 20 at 10 mg/kg vs 5i at 0.08 mg/kg, 15 administrations, 5 rpm, three consecutive days
Description: 10. Rotarod Test for Motor Coordination
The protocol of rotarod test was based on those described in the literature [Y. Z. Lee, C. W Yang, H. Y. Hsu, Y. Q. Qiu, T. K. Yeh, H. Y. Chang, et al., J. Med. Chem. 2012, 55, 10363-10377] with slight modifications. Eight week-old female athymic nude mice were used. All the animal experiments followed ethical standards, and the protocols have been reviewed and approved by the Animal Care and Use Committee of China Medical University (IACUC approval no: 102-235-N). The mice were randomly divided into two groups (n=3) and treated with compound 20 (10 mg/kg) or 7-methoxycryptopleurine 5i (0.08 mg/kg) intraperitoneally. The compounds were dissolved in a mixture of 2.5% DMSO, 2.5% EtOH, 5% Cremophor EL, and 90% normal saline. Each group was administered once daily, five days per week for 15 times in total. After 15 administrations of the compounds, the mice were placed on the rotarod apparatus for training (day 1) and test (days 2-4) with the rod set in motion at a constant speed of 5 rpm. The latency time to fall from the rotating rod was recorded for a maximum of 180 s.

[14] = Homo sapiens, DU-145, 48 h treatment
[15] = Homo sapiens, NCI-H1299, 48 h treatment
[16] = Homo sapiens, MCF7, 48 h treatment

COc1cc2c3c(c4cc(OC)c(OC)cc4c2cc1OC)CN1CCC[C@@H]1C3 [Compound 1, (R)-tylophorine]
water solubility [1]: low | CNS side effects [2]: caused central nervous system (CNS) side effects

COc1cc2c3c(c4ccc(OC)c(OC)c4c2cc1OC)CN1CCC[C@@H]1C3 [Compound 2, (R)-tylocrebrine]
clinical trial outcome [3]: failed in the early clinical trial owing to CNS toxicity

COc1ccc2c3c(c4cc(OC)c(OC)cc4c2c1)C[C@H]1C[C@H](O)CCN1C3 [Compound 3]
BBB penetration [4]: significantly reduced the BBB penetration

COc1cc2c3c(c4c(OC)c(OC)c(OC)cc4c2cc1OC)CC1CCCN1C3 (centres unmarked) [Compound 4a, 1,2,3,6,7-Pentamethoxy-11,12,12a,13-tetrahydro-10H-9a-azacyclopenta[b]triphenylene]
IC50 [5, 14]: > 2500 nM | melting point: 225 to 226 °C | IC50 [6, 15]: > 2500 nM | IC50 [7, 16]: > 2500 nM

COc1ccc2c3c(c4cc(OC)c(OC)cc4c2c1)CN1CCC[C@H]1C3 [Compound 4b, Deoxypergularinine]
IC50 ([5]; 48 h treatment): 176 nM | IC50 ([6]; 48 h treatment): 235 nM | IC50 ([7]; 48 h treatment): 305 nM

COc1ccc2c(c1)c1c(c3cc(OC)c(OC)cc32)CN2CCCC2C1 (centres unmarked) [Compound 4c, 2,6,7-Trimethoxy-11,12,12a,13-tetrahydro-10H-9a-azacyclopenta[b]triphenylene]
IC50 [5, 14]: 2150 nM | melting point: 187 to 189 °C | IC50 [6, 15]: > 2500 nM | IC50 [7, 16]: 2480 nM

COc1cc2c3c(c4cc(OC)c(OC)c(OC)c4c2cc1OC)CC1CCCN1C3 (centres unmarked) [Compound 4d, 4-Methoxytylophorine]
IC50 ([5]; 48 h treatment): 58.8 nM | IC50 ([6]; 48 h treatment): 54.1 nM | IC50 ([7]; 48 h treatment): 61.2 nM

COc1cc2c3c(c4cc(OC)c(OC)c(OC)c4c2cc1OC)CN1CCCC1C3 (centres unmarked) [Compound 4e, 2,3,5,6,7-Pentamethoxy-11,12,12a,13-tetrahydro-10H-9a-azacyclopenta[b]triphenylene]
IC50 [5, 14]: 150 nM | melting point: 169 to 170 °C | IC50 [6, 15]: 165 nM | IC50 [7, 16]: 224 nM

COc1ccc2c3c(c4cc(OC)c(OC)cc4c2c1)C[C@H]1CCCN1C3 [Compound 4g, Antofine]
IC50 ([5]; 48 h treatment): 30.3 nM | IC50 ([6]; 48 h treatment): 32.5 nM | IC50 ([7]; 48 h treatment): 42.4 nM

COc1cc2c3c(c4c(OC)c(OC)c(OC)cc4c2cc1OC)CN1CCCC1C3 (centres unmarked) [Compound 4h, 2,3,6,7,8-Pentamethoxy-11,12,12a,13-tetrahydro-10H-9a-azacyclopenta[b]triphenylene]
IC50 [5, 14]: > 2500 nM | melting point: 231 °C (dec.) | IC50 [6, 15]: > 2500 nM | IC50 [7, 16]: > 2500 nM

COc1cc2c3c(c4cc(OC)c(OC)cc4c2cc1OC)CN1CCC[C@@H]1C3 [Compound 4i, Tylophorine]
IC50 ([5]; 48 h treatment): 28.3 nM | IC50 ([6]; 48 h treatment): 30.9 nM | IC50 ([7]; 48 h treatment): 41.1 nM

COc1cc2c3c(c4c(OC)c(OC)c(OC)cc4c2cc1OC)CC1CCCCN1C3 (centres unmarked) [Compound 5a, 1,2,3,6,7-Pentamethoxy-10,11,12,13,13a,14-hexahydro-9H-9a-azabenzo[b]triphenylene]
IC50 [5, 14]: 272 nM | melting point: 191 to 192 °C | IC50 [6, 15]: 252 nM | IC50 [7, 16]: 276 nM

COc1ccc2c3c(c4cc(OC)c(OC)cc4c2c1)CN1CCCCC1C3 (centres unmarked) [Compound 5b, Boehmeriasin A]
IC50 ([5]; 48 h treatment): 184 nM | IC50 ([6]; 48 h treatment): 211 nM | IC50 ([7]; 48 h treatment): 272 nM

COc1ccc2c(c1)c1c(c3cc(OC)c(OC)cc32)CN2CCCCC2C1 (centres unmarked) [Compound 5c, 2,6,7-Trimethoxy-10,11,12,13,13a,14-hexahydro-9H-9a-azabenzo[b]triphenylene]
IC50 [5, 14]: 279 nM | melting point: 182 to 184 °C | IC50 [6, 15]: 314 nM | IC50 [7, 16]: 392 nM

COc1cc2c3c(c4cc(OC)c(OC)c(OC)c4c2cc1OC)CC1CCCCN1C3 (centres unmarked) [Compound 5d, 4,7-Dimethoxycryptoplerine]
IC50 ([5]; 48 h treatment): 35.7 nM | IC50 ([6]; 48 h treatment): 54.4 nM | IC50 ([7]; 48 h treatment): 61.9 nM

COc1cc2c3c(c4cc(OC)c(OC)c(OC)c4c2cc1OC)CN1CCCCC1C3 (centres unmarked) [Compound 5e, 2,3,5,6,7-Pentamethoxy-10,11,12,13,13a,14-hexahydro-9H-9a-azabenzo[b]triphenylene]
IC50 [5, 14]: 23.8 nM | melting point: 166 to 167 °C | IC50 [6, 15]: 27.6 nM | IC50 [7, 16]: 19.3 nM

COc1ccc2c(c1)c1c(c3cc(OC)c(OC)cc32)CC2CCCCN2C1 (centres unmarked) [Compound 5f, 2,3,7-Trimethoxy-10,11,12,13,13a,14-hexahydro-9H-9a-azabenzo[b]triphenylene]
fold increase in the cytotoxicity relative to compound 4f [8]: 28-36 fold | IC50 [5, 14]: 41.8 nM | melting point: 156 to 158 °C | IC50 [6, 15]: 57.3 nM | IC50 [7, 16]: 68.7 nM

COc1ccc2c3c(c4cc(OC)c(OC)cc4c2c1)C[C@H]1CCCCN1C3 [Compound 5g, Cryptopleurine]
IC50 ([5]; 48 h treatment): 4.6 nM | IC50 ([6]; 48 h treatment): 9 nM | IC50 ([7]; 48 h treatment): 11.3 nM

COc1cc2c3c(c4c(OC)c(OC)c(OC)cc4c2cc1OC)CN1CCCCC1C3 (centres unmarked) [Compound 5h, 2,3,6,7,8-Pentamethoxy-10,11,12,13,13a,14-hexahydro-9H-9a-azabenzo[b]triphenylene]
IC50 [5, 14]: 215 nM | melting point: 211 °C (dec.) | IC50 [6, 15]: 232 nM | IC50 [7, 16]: 277 nM

COc1cc2c3c(c4cc(OC)c(OC)cc4c2cc1OC)CN1CCCCC1C3 (centres unmarked) [Compound 5i, 7-Methoxycryptopleurine]
IC50 ([5]; 48 h treatment): 4.5 nM | IC50 ([6]; 48 h treatment): 7.1 nM | solubility in the solvent system [9]: less than 0.08 mg/mL | IC50 ([7]; 48 h treatment): 10.7 nM

COc1cc2c(cc1O)c1c(c3cc(OC)c(OC)cc32)CC2CCCCN2C1 (centres unmarked) [Compound 20, 7-Hydroxy-2,3,6-trimethoxy-10,11,12,13,13a,14-hexahydro-9H-9a-azabenzo[b]triphenylene]
IC50 [5, 14]: 4.4 nM | melting point: 114 to 115 °C | cell cycle associated protein expression [10]: decrease in cyclin D1-cdk4, cyclin E-cdk2, and cyclin B1-cdk1 expression | solubility [11]: ~1300 µg/mL (≈ 3.3 mM) | IC50 [12]: 26 nM | motor coordination (neurotoxicity), rotarod [13]: better motor coordination than the compound 5i-treated group | IC50 [6, 15]: 5.2 nM | IC50 [7, 16]: 6.4 nM

Desmethoxytylophorine [Compound 4f]
IC50 ([5]; 48 h treatment): 1510 nM | IC50 ([6]; 48 h treatment): 2020 nM | IC50 ([7]; 48 h treatment): 1910 nM
